According to the supplement of paper PMC10477900:
Where a name gives a salt, the structure may show the parent alone.

Tests used:
HCT116 [1] = conditions: 72 h
Procedure: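 HCT116 control and MTA1-KO (CRISPR) HCT116 cells were seeded in 384-well plates (800 cells/well), treated 16 h later with 237 metabolism-related anticancer drugs at five doses (10 uM, 2 uM, 400 nM, 80 nM, 16 nM) for 72 h, two replicates; viability by CCK8. Values are % inhibition of viability relative to untreated cells, plus fitted IC50.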

HCT116 [2] = assay: viability inhibition vs untreated; higher = more cytotoxic; conditions: 72 h

## CCN[C@H]1CN(CCCOC)S(=O)(=O)c2sc(S(N)(=O)=O)cc21 [Brinzolamide]
HCT116 [1]; genotype: MTA1-KO
  IC50: > 10 µM
HCT116 [1]; genotype: control
  IC50: > 10 µM
HCT116 [2]; genotype: MTA1-KO, 16 nM
  viability inhibition: -13.1%
HCT116 [2]; genotype: MTA1-KO, 80 nM
  viability inhibition: -25.7%
HCT116 [2]; genotype: MTA1-KO, 400 nM
  viability inhibition: -24.4%
HCT116 [2]; genotype: MTA1-KO, 2000 nM
  viability inhibition: -29.9%
HCT116 [2]; genotype: MTA1-KO, 10000 nM
  viability inhibition: -25.2%
HCT116 [2]; genotype: control, 16 nM
  viability inhibition: -12.4%
HCT116 [2]; genotype: control, 80 nM
  viability inhibition: -11.9%
HCT116 [2]; genotype: control, 400 nM
  viability inhibition: -8.93%
HCT116 [2]; genotype: control, 2000 nM
  viability inhibition: -15.3%
HCT116 [2]; genotype: control, 10000 nM
  viability inhibition: -13.6%

## O=C(NCCCNc1nc(Nc2cccc(NC(=O)N3CCCC3)c2)ncc1I)c1cccs1 [BX795]
HCT116 [1]; genotype: MTA1-KO
  IC50: > 10 µM
HCT116 [1]; genotype: control
  IC50: > 10 µM
HCT116 [2]; genotype: MTA1-KO, 16 nM
  viability inhibition: -13.8%
HCT116 [2]; genotype: MTA1-KO, 80 nM
  viability inhibition: -8.82%
HCT116 [2]; genotype: MTA1-KO, 400 nM
  viability inhibition: -26.4%
HCT116 [2]; genotype: MTA1-KO, 2000 nM
  viability inhibition: -9.81%
HCT116 [2]; genotype: MTA1-KO, 10000 nM
  viability inhibition: -6.85%
HCT116 [2]; genotype: control, 16 nM
  viability inhibition: -1.4%
HCT116 [2]; genotype: control, 80 nM
  viability inhibition: -15%
HCT116 [2]; genotype: control, 400 nM
  viability inhibition: -1.64%
HCT116 [2]; genotype: control, 2000 nM
  viability inhibition: 18.7%
HCT116 [2]; genotype: control, 10000 nM
  viability inhibition: 7.91%

## c1cc(-c2cnn3cc(-c4ccc(OCCN5CCCCC5)cc4)cnc23)ccn1 [Dorsomorphin dihydrochloride]
HCT116 [1]; genotype: MTA1-KO
  IC50: > 10 µM
HCT116 [1]; genotype: control
  IC50: 8.54 µM
HCT116 [2]; genotype: MTA1-KO, 16 nM
  viability inhibition: -1.27%
HCT116 [2]; genotype: MTA1-KO, 80 nM
  viability inhibition: -9.68%
HCT116 [2]; genotype: MTA1-KO, 400 nM
  viability inhibition: 3.35%
HCT116 [2]; genotype: MTA1-KO, 2000 nM
  viability inhibition: 4.71%
HCT116 [2]; genotype: MTA1-KO, 10000 nM
  viability inhibition: 43.6%
HCT116 [2]; genotype: control, 16 nM
  viability inhibition: -2.17%
HCT116 [2]; genotype: control, 80 nM
  viability inhibition: -2.84%
HCT116 [2]; genotype: control, 400 nM
  viability inhibition: -1.4%
HCT116 [2]; genotype: control, 2000 nM
  viability inhibition: 7.12%
HCT116 [2]; genotype: control, 10000 nM
  viability inhibition: 55.1%

## N[C@@H]1C[C@H]1c1ccccc1 [Tranylcypromine (2-PCPA) hydrochloride]
HCT116 [1]; genotype: MTA1-KO
  IC50: > 10 µM
HCT116 [1]; genotype: control
  IC50: > 10 µM
HCT116 [2]; genotype: MTA1-KO, 16 nM
  viability inhibition: -22.8%
HCT116 [2]; genotype: MTA1-KO, 80 nM
  viability inhibition: -17.9%
HCT116 [2]; genotype: MTA1-KO, 400 nM
  viability inhibition: -14.3%
HCT116 [2]; genotype: MTA1-KO, 2000 nM
  viability inhibition: -18.2%
HCT116 [2]; genotype: MTA1-KO, 10000 nM
  viability inhibition: -15.3%
HCT116 [2]; genotype: control, 16 nM
  viability inhibition: -0.159%
HCT116 [2]; genotype: control, 80 nM
  viability inhibition: -12.9%
HCT116 [2]; genotype: control, 400 nM
  viability inhibition: -1.62%
HCT116 [2]; genotype: control, 2000 nM
  viability inhibition: -5.71%
HCT116 [2]; genotype: control, 10000 nM
  viability inhibition: -28%

## C[C@]12CC[C@H]3[C@@H](CC[C@@]45O[C@@H]4C(O)=C(C#N)C[C@]35C)[C@@H]1CC[C@@H]2O [Trilostane]
HCT116 [1]; genotype: MTA1-KO
  IC50: > 10 µM
HCT116 [1]; genotype: control
  IC50: > 10 µM
HCT116 [2]; genotype: MTA1-KO, 16 nM
  viability inhibition: -17%
HCT116 [2]; genotype: MTA1-KO, 80 nM
  viability inhibition: -18.6%
HCT116 [2]; genotype: MTA1-KO, 400 nM
  viability inhibition: -14.1%
HCT116 [2]; genotype: MTA1-KO, 2000 nM
  viability inhibition: -30.8%
HCT116 [2]; genotype: MTA1-KO, 10000 nM
  viability inhibition: -28.2%
HCT116 [2]; genotype: control, 16 nM
  viability inhibition: 8.35%
HCT116 [2]; genotype: control, 80 nM
  viability inhibition: 7.91%
HCT116 [2]; genotype: control, 400 nM
  viability inhibition: 2.11%
HCT116 [2]; genotype: control, 2000 nM
  viability inhibition: -10.9%
HCT116 [2]; genotype: control, 10000 nM
  viability inhibition: -4.61%

## CC(C)(C)c1ccc(S(=O)(=O)NCc2ccc(C(=O)Nc3cccnc3)cc2)cc1 [STF31]
HCT116 [1]; genotype: MTA1-KO
  IC50: > 10 µM
HCT116 [1]; genotype: control
  IC50: 1.33 µM
HCT116 [2]; genotype: MTA1-KO, 16 nM
  viability inhibition: 0.724%
HCT116 [2]; genotype: MTA1-KO, 80 nM
  viability inhibition: -19.9%
HCT116 [2]; genotype: MTA1-KO, 400 nM
  viability inhibition: -8.95%
HCT116 [2]; genotype: MTA1-KO, 2000 nM
  viability inhibition: -5.53%
HCT116 [2]; genotype: MTA1-KO, 10000 nM
  viability inhibition: 6.98%
HCT116 [2]; genotype: control, 16 nM
  viability inhibition: 18.1%
HCT116 [2]; genotype: control, 80 nM
  viability inhibition: 6.81%
HCT116 [2]; genotype: control, 400 nM
  viability inhibition: 42.8%
HCT116 [2]; genotype: control, 2000 nM
  viability inhibition: 43.4%
HCT116 [2]; genotype: control, 10000 nM
  viability inhibition: 74.1%

## CC(=O)N=c1sc(S(N)(=O)=O)nn1C [Methazolamide]
HCT116 [1]; genotype: MTA1-KO
  IC50: > 10 µM
HCT116 [1]; genotype: control
  IC50: > 10 µM
HCT116 [2]; genotype: MTA1-KO, 16 nM
  viability inhibition: -8.89%
HCT116 [2]; genotype: MTA1-KO, 80 nM
  viability inhibition: -28.2%
HCT116 [2]; genotype: MTA1-KO, 400 nM
  viability inhibition: -14.6%
HCT116 [2]; genotype: MTA1-KO, 2000 nM
  viability inhibition: -23.2%
HCT116 [2]; genotype: MTA1-KO, 10000 nM
  viability inhibition: -21.9%
HCT116 [2]; genotype: control, 16 nM
  viability inhibition: 6.26%
HCT116 [2]; genotype: control, 80 nM
  viability inhibition: -6.63%
HCT116 [2]; genotype: control, 400 nM
  viability inhibition: -3.65%
HCT116 [2]; genotype: control, 2000 nM
  viability inhibition: -3.04%
HCT116 [2]; genotype: control, 10000 nM
  viability inhibition: -0.243%
